Data taken from publication PMC4942689, “Deciphering the function of the CNGB1b subunit in olfactory CNG channels” (Scientific Reports, 2016).
Where “and” joins values, the source holds several entries; their conditions need not be identical. Equal values may be shown once. Read-outs that look alike come from different tables or passages of the source.

Assays:
[1] = molecular target: T1, CNGA2RE:B1b (Rattus norvegicus, UniProt A0A8I5ZN27+Q00195, R538E); assay: Ligand binding, confocal patch-clamp fluorometry; parameters: key to Ligand binding to CNGB1b: +: ligand binding to the respective modulatory subunits was either observed or not; −: ligand binding to the respective modulatory subunits was either observed or not; conditions: 10 μM; construct CNGA2RE:B1b
T1 construct: expressed in transfected cells; host or cells: Xenopus laevis oocytes (cRNA injection), excised patches
T1 sequence (Q00195 whole entry R538E): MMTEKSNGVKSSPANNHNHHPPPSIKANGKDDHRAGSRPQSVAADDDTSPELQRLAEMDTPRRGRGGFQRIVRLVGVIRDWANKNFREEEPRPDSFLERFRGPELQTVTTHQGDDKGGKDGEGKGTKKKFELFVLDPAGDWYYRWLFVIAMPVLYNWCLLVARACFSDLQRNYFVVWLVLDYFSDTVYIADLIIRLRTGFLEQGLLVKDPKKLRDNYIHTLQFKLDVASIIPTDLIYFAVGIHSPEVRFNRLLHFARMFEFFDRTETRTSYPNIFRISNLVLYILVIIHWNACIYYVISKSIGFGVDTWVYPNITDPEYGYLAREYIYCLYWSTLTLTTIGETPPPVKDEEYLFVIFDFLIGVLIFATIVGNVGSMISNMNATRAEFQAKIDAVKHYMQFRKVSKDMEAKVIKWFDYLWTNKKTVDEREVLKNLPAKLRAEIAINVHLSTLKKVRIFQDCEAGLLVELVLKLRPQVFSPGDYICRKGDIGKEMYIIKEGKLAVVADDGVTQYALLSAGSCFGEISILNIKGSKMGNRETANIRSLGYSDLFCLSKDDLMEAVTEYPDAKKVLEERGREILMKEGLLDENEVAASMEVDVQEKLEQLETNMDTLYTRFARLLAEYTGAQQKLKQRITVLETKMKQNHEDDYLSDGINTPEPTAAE
T1 sequence (A0A8I5ZN27 1-858 isoform A0A8I5ZN27-2, stated change not applied): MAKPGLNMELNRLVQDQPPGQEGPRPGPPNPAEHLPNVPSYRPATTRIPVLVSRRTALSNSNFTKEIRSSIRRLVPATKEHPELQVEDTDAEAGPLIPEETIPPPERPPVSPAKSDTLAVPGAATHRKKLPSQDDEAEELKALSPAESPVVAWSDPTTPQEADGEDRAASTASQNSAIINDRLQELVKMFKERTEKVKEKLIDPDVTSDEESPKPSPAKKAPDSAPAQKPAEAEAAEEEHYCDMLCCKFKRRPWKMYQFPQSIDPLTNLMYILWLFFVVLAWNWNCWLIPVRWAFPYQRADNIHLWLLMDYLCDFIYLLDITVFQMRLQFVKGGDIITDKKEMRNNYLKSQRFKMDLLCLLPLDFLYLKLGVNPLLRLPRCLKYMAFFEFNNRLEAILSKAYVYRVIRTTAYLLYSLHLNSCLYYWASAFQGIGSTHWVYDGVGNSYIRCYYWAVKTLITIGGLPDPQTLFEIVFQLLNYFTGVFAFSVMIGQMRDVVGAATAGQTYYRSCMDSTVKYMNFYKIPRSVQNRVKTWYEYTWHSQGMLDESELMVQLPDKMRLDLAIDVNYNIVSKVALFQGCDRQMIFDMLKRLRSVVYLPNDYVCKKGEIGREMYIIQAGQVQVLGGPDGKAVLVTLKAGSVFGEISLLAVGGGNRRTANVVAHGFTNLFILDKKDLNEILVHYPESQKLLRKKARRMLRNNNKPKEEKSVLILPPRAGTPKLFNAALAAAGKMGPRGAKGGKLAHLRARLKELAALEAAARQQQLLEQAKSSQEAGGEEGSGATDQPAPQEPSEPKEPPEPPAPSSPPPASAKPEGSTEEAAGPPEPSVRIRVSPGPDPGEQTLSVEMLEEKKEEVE
Source text: (§1) The channels to be studied were expressed in Xenopus oocytes. We first tested the subunit composition in our channels when coexpressing different combinations of subunits by single-channel recordings. For CNGA2:A4, CNGA2:B1b and CNGA2:A4:B1b channels we exclusively obtained the specific and easily distinguishable single-channel activity reported earlier when injecting respective amounts of RNA[7][13]. We therefore assumed that the channels formed had always the expected subunit composition. The specific binding of cyclic nucleotides and the activation of the CNG channels were measured in parallel by means of confocal patch-clamp fluorometry in excised patches, using fluorescent cyclic nucleotide derivatives. The method has been described previously.
To study ligand binding to the CNGB1b subunit selectively, the binding domain of the CNGA2 subunits was disabled by either the point mutation R538E (red crosses in the cartoons) or T539M (blue crosses in the cartoons)[13][20]. […] To this end, CNGB1b was coexpressed with CNGA2RE.
(§2) The ligand binding was measured in macropatches by patch-clamp fluorometry[41][42] combined with confocal microscopy. […] Recordings were performed with an LSM 510 or 710 confocal microscope (Zeiss, Jena, Germany) and were triggered by the ISO3 software (MFK, Niedernhausen, Germany). To distinguish between the fluorescence of the unbound ligands from that of the bound ligands, a second dye, DY647 (Dyomics, Jena, Germany), was added to the bath solution. The 543-nm and 633-nm lines of a He-Ne laser were used to excite fcAMP/fcGMP and DY647, respectively. The method of confocal patch-clamp fluorometry has been described in detail previously.

[2] = molecular target: T2, CNGA2TM:A4RE:B1bRE (Rattus norvegicus, UniProt A0A8I5ZN27+Q00195+Q64359, R1106E/R430E/T539M); assay: Ligand binding, confocal patch-clamp fluorometry; parameters: key: +: ligand binding to the respective modulatory subunits was either observed or not; −: ligand binding to the respective modulatory subunits was either observed or not; conditions: 10 μM; construct CNGA2TM:A4RE:B1bRE
T2 construct: expressed in transfected cells; host or cells: Xenopus laevis oocytes (cRNA injection), excised inside-out patches
T2 sequence (Q00195 whole entry T539M): as the sequence (Q00195 whole entry R538E) above, with E538R, T539M counted along it
T2 sequence (Q64359 whole entry R430E): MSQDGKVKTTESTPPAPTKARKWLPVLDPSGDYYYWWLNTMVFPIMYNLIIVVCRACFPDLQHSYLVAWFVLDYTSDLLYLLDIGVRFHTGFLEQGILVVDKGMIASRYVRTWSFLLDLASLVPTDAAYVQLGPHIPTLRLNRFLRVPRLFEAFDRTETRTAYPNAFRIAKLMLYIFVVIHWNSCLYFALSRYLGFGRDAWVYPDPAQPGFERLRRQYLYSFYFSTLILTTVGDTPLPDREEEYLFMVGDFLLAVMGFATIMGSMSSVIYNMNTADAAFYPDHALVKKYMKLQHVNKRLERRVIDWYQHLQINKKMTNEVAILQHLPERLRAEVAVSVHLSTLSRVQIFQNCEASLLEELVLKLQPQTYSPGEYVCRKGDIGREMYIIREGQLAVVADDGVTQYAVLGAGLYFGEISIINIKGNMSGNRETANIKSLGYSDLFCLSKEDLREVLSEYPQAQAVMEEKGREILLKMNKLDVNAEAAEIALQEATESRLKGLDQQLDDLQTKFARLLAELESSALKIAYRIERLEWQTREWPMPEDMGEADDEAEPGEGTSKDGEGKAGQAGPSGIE
T2 sequence (A0A8I5ZN27 1-858 isoform A0A8I5ZN27-2 R657E): as the sequence (A0A8I5ZN27 1-858 isoform A0A8I5ZN27-2, stated change not applied) above, with R657E counted along it
Source text: as §1
To verify the hypothesis that the CNGB1b subunit in CNGA2:A4:B1b channels binds cyclic nucleotides, we coexpressed CNGB1b with CNGA4RE and either CNGA2RE or CNGA2TM and measured ligand binding in the presence of 10 μM fcGMP. […]
The ligand binding was measured in macropatches by patch-clamp fluorometry[41][42] combined with confocal microscopy. […] To distinguish between the fluorescence of the unbound ligands from that of the bound ligands, a second dye, DY647 (Dyomics, Jena, Germany), was added to the bath solution. […]

[3] = molecular target: T3, CNGA2TM:A4RE:B1b (Rattus norvegicus, UniProt A0A8I5ZN27+Q00195+Q64359, R430E/T539M); assay: Channel activation during confocal patch-clamp fluorometry; format: biochemical; conditions: 10 μM fcGMP; normalized to current at 4 mM cGMP
T3 construct: expressed in transfected cells; host or cells: Xenopus laevis oocytes (cRNA injection), excised inside-out patches
T3 sequence (Q00195 whole entry T539M): as the sequence (Q00195 whole entry R538E) above, with E538R, T539M counted along it
T3 sequence (Q64359 whole entry R430E): as the sequence (Q64359 whole entry R430E) above
T3 sequence (A0A8I5ZN27 1-858 isoform A0A8I5ZN27-2, stated change not applied): as the sequence (A0A8I5ZN27 1-858 isoform A0A8I5ZN27-2, stated change not applied) above
Procedure: (§3) To verify the hypothesis that the CNGB1b subunit in CNGA2:A4:B1b channels binds cyclic nucleotides, we coexpressed CNGB1b with CNGA4RE and either CNGA2RE or CNGA2TM and measured ligand binding in the presence of 10 μM fcGMP. […] To verify the specificity of the binding to the CNGB1b subunit in these heterotetrameric channels, we coexpressed the CNGB1bRE subunit with CNGA2RE and CNGA4RE.
(§4) Figure 2 In a CNGA2:A4 background the CNGB1b subunit binds both fcGMP and fHcAMP and activates the channel. (a) Binding of fcGMP to the CNGB1b subunit evokes channel activation. Binding of fcGMP to CNGB1b was observed when coexpressed with either CNGA2RE:A4RE or CNGA2TM:A4RE (upper diagram). […] (b) Binding of fHcAMP to CNGB1b was observed when coexpressed with both CNGA2RE and CNGA4RE. When disabling the binding domain of CNGB1b, the fluorescence intensity was nearly abolished. Correspondingly, CNGA2RE:A4RE:B1b channels were activated by the ligand only when the CNGB1b binding site was available.
(§5) Patch-clamp experiments were performed using an Axopatch 200B amplifier (Molecular Devices LLC, CA, U.S.A.) in the inside-out configuration. The patch pipettes for recording of macroscopic currents were pulled from borosilicate glass tubing (outer diameter 2.0 mm, inner diameter 1.0 mm; Hilgenberg GmbH, Germany). The initial resistance was 0.7–1.3 MΩ. The patches were formed as pushed inside-out patches. […] Cyclic nucleotide concentration jumps were performed using a double-barreled glass pipette mounted on a piezo-driven device. Intracellular (bath) and extracellular (pipette) solutions contained (mM) 150 KCl, 1 EGTA, 5 Hepes, pH = 7.4 with KOH. […] Currents in the absence of the cyclic nucleotide were subtracted. All patches included in this study were first tested for channel expression in the presence of a saturating ligand concentration. Only patches with large current, i.e. a large number of channels, were included in our statistics. The currents were measured at +10 mV or, if mentioned, at +100 mV.
as §2

[4] = molecular target: T2, CNGA2TM:A4RE:B1bRE; assay: as above; format: biochemical; conditions: 10 μM fcGMP; all four binding sites disabled
Procedure: as §3, §4, §5, §2

[5] = molecular target: T4, CNGA2RE:A4RE:B1bRE (Rattus norvegicus, UniProt A0A8I5ZN27+Q00195+Q64359, R1106E/R430E/R538E); assay: as above; format: biochemical; conditions: 10 μM fcGMP; all four binding sites disabled
T4 construct: expressed in transfected cells; host or cells: Xenopus laevis oocytes (cRNA injection), excised inside-out patches
T4 sequence (Q00195 whole entry R538E): as the sequence (Q00195 whole entry R538E) above
T4 sequence (Q64359 whole entry R430E): as the sequence (Q64359 whole entry R430E) above
T4 sequence (A0A8I5ZN27 1-858 isoform A0A8I5ZN27-2 R657E): as the sequence (A0A8I5ZN27 1-858 isoform A0A8I5ZN27-2, stated change not applied) above, with R657E counted along it
Procedure: as §3, §4, §5, §2

[6] = molecular target: T5, CNGA2RE:A4:B1bRE channels (Rattus norvegicus, UniProt A0A8I5ZN27+Q00195+Q64359, R1106E/R538E); assay: Concentration-activation relationship, patch-clamp; format: biochemical; conditions: for EC50: Equation 2, +100 mV
T5 construct: expressed in transfected cells; host or cells: Xenopus laevis oocytes (cRNA injection), excised inside-out patches
T5 sequence (Q00195 whole entry R538E): as the sequence (Q00195 whole entry R538E) above
T5 sequence (Q64359 whole entry): as the sequence (Q64359 whole entry R430E) above, with E430R counted along it
T5 sequence (A0A8I5ZN27 1-858 isoform A0A8I5ZN27-2 R657E): as the sequence (A0A8I5ZN27 1-858 isoform A0A8I5ZN27-2, stated change not applied) above, with R657E counted along it
Procedure: In order to determine the apparent affinity of the modulatory subunits in heterotetrameric CNGA2:A4:B1b channels for cGMP, we coexpressed each of them with disabled neighbored subunits, generating themselves activation effects only at much higher ligand concentrations. In case of two well-separated current components, this would allow us to determine the EC50 value for the CNGB1b and CNGA4 subunit in functional heterotetrameric channels.
as §5
Fits of equations to data points were performed with the 8.1G® software (OriginLab Corporation, Northampton, U.S.A.). Concentration-activation relationships were obtained by relating the actual current amplitude, I, to the maximum current amplitude elicited by a saturating concentration of ligand, Imax, and plotting this ratio as function of the ligand concentration, x. The concentration-activation data were fitted using the Hill equation
For the concentration-activation relationships showing two components, the data points were fitted to the sum of two Hill equations according to
EC50,h, EC50,l, Hh, and Hl are the ligand concentration of half maximum current and the Hill coefficient for the high and low affinity component, respectively. a and (1-a) denote the contribution of the high and low affinity component, respectively.

Compound | Ligand binding to CNGB1b [1] | Ligand binding to CNGA4 [2] | Ligand binding to CNGB1b [2] | activation (I/Imax) [3] [%] | activation [4] | activation [5] | H1 ([6]; Hill coefficient of low affinity component, +100 mV) | a (contribution of the high affinity component) ([6]; fraction, Equation 2) | EC50 ([6]; high affinity component (action of CNGA4), read-out: EC50,h) | EC50 ([6]; low affinity component, read-out: EC50,l) [µM] | maximum contribution of CNGA4 to channel activation (a) ([6]; of the maximum channel activity generated by all subunits)
8-[DY-547]-AET-cGMP [fcGMP] | − | − | − | 1.7 ± 0.6 | did not trigger activation | did not trigger activation |  |  |  |  | 
Nc1nc2c(ncn2[C@@H]2O[C@@H]3COP(=O)(O)O[C@H]3[C@H]2O)c(=O)[nH]1 [cGMP] |  |  |  |  |  |  | 1.1 | 0.24 | 8.9 µM and 8.86 µM | 364 | 24.6% and ~ 24%
